Laboratory results from patent US20230117034A1, “PYRAZOLOTRIAZINES” (Bayer Aktiengesellschaft, priority 2019, published 2023).

Key:
[1] = system: MDA-MB-231, human breast cancer cells; experiment: Proliferation assay MDA-MB-231 (crystal violet, 4 days); format: cell-based; conditions: Homo sapiens, MDA-MB-231, 96 h, MDA-MB-231 cells, median, read-out: Prolif-MDA MB-231, IC50-[mol/l] (median)
How it was run: (§1)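 Cells seeded at 4,000/well in medium with 10% FCS; after 24 h, compounds added at 0.01-10 µmol/L (0.1% DMSO) for 4 days. Glutaraldehyde-fixed, crystal violet-stained, absorbance at 595 nm normalized to zero-point plate (0%) and untreated cells (100%); IC50 by 4-parameter fit.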

[2] = system: CAL-120, human breast adenocarcinoma cells; experiment: Proliferation assay CAL-120 (crystal violet, 4 days); format: cell-based; conditions: Homo sapiens, CAL-120, 96 h, CAL-120 cells, median, read-out: Prolif-CAL-120, IC50-[mol/l] (median)
How it was run: as §1

[3] = system: BRCA1 mRNA expression in MDA-MB-231 cells; experiment: qRT-PCR assay: BRCA1 mRNA expression in MDA-MB-231; format: cell-based, human; conditions: Homo sapiens, MDA-MB-231, Inhibition of BRCA1 mRNA expression in MDA-MB-231 cells; median; read-out: RTqPCR-MDA-MB-231, IC50, BRCA1 (median)
How it was run: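 Cells were seeded at 200,000 cells/well, left 24 h, then exposed continuously to test substances for 24 h. Total RNA (600 ng) was reverse-transcribed to cDNA and amplified by qPCR, and transcript levels were normalised to GAPDH housekeeping expression.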

Row | IC50 [1] | IC50 [2] | IC50 [3] | Structure (SMILES)
1 | 3.78 nM | 3.1 nM | 1.8 nM | Fc1cc2nc(CNc3nc(N4CCOCC4)nc4c(C(F)(F)F)cnn34)[nH]c2cc1F [Example 333, N-[(5,6-difluoro-1H-benzimidazol-2-yl)methyl]-2-(morpholin-4-yl)-8-(trifluoromethyl)pyrazolo[1,5-a][1,3,5]triazin-4-amine]
2 | 18.8 nM | 8.05 nM | 4.93 nM | Brc1cnn2c(NCc3nc4ccccc4[nH]3)nc(N3CC4CCC3CO4)nc12 (stereo not drawn) [Example 352, N-[(1H-benzimidazol-2-yl)methyl]-8-bromo-2-(2-oxa-5-azabicyclo[2.2.2]octan-5-yl)pyrazolo[1,5-a][1,3,5]triazin-4-amine]
3 | 7.8 nM | 3.9 nM | 7.36 nM | CN1CCN(c2nc(NCc3nc4c(F)c(Cl)ccc4[nH]3)n3ncc(C4CC4)c3n2)CC1 [Example 371, N-[(5-chloro-4-fluoro-1H-benzimidazol-2-yl)methyl]-8-cyclopropyl-2-(4-methylpiperazin-1-yl)pyrazolo[1,5-a][1,3,5]triazin-4-amine]
4 | 3.62 nM | 2.8 nM | 2.6 nM | CN(CC(C)(C)O)c1nc(NCc2nc3c(F)c(Cl)ccc3[nH]2)n2ncc(Br)c2n1 [Example 374, 1-[(8-bromo-4-{[(5-chloro-4-fluoro-1H-benzimidazol-2-yl)methyl]amino}pyrazolo[1,5-a][1,3,5]triazin-2-yl)(methyl)amino]-2-methylpropan-2-ol]
5 | 14.8 nM | 4.05 nM | 3.87 nM | CN1CCN(c2nc(NCc3nc4c(F)c(F)ccc4[nH]3)n3ncc(Cl)c3n2)CC1 [Example 358, 8-chloro-N-[(4,5-difluoro-1H-benzimidazol-2-yl)methyl]-2-(4-methylpiperazin-1-yl)pyrazolo[1,5-a][1,3,5]triazin-4-amine]
6 | 3.75 nM | 3.08 nM | 2.56 nM | CN(CC(C)(C)O)c1nc(NCc2nc3cc(Cl)c(Cl)cc3[nH]2)n2ncc(Br)c2n1 [Example 331, 1-[(8-bromo-4-{[(5,6-dichloro-1H-benzimidazol-2-yl)methyl]amino}pyrazolo[1,5-a][1,3,5]triazin-2-yl)(methyl)amino]-2-methylpropan-2-ol]
7 | 7.45 nM | 4.79 nM | 7.85 nM | FC(F)(F)c1ccc2[nH]c(CNc3nc(N4CCOCC4)nc4c(Br)cnn34)nc2c1 [Example 339, 8-bromo-2-(morpholin-4-yl)-N-{[5-(trifluoromethyl)-1H-benzimidazol-2-yl]methyl}pyrazolo[1,5-a][1,3,5]triazin-4-amine]
8 | 4.27 nM | 3.21 nM | 8 nM | Fc1cc2nc(CNc3nc(N4CCOCC4)nc4c(Br)cnn34)[nH]c2cc1Cl [Example 336, 8-bromo-N-[(6-chloro-5-fluoro-1H-benzimidazol-2-yl)methyl]-2-(morpholin-4-yl)pyrazolo[1,5-a][1,3,5]triazin-4-amine]

Row | Structure (SMILES) | IC50 [1] | IC50 [2] | IC50 [3]
9 | Fc1c(Cl)ccc2[nH]c(CNc3nc(N4CC5CCC(C4)N5)nc4c(C5CC5)cnn34)nc12 [Example 379, N-[(5-chloro-4-fluoro-1H-benzimidazol-2-yl)methyl]-8-cyclopropyl-2-(3,8-diazabicyclo[3.2.1]octan-3-yl)pyrazolo[1,5-a][1,3,5]triazin-4-amine] | 2.92 nM | 1.71 nM | 2.36 nM
10 | Clc1cc2nc(CNc3nc(N4CC5CCC(C4)N5)nc4c(C5CC5)cnn34)[nH]c2cc1Cl [Example 324, 8-cyclopropyl-2-(3,8-diazabicyclo[3.2.1]octan-3-yl)-N-[(5,6-dichloro-1H-benzimidazol-2-yl)methyl]pyrazolo[1,5-a][1,3,5]triazin-4-amine] | 1.56 nM | 1.17 nM | 8.86 nM
11 | Cc1cc2nc(CNc3nc(N4CC5CCC(C4)N5)nc4c(Br)cnn34)[nH]c2cc1C [Example 353, 8-bromo-2-(3,8-diazabicyclo[3.2.1]octan-3-yl)-N-[(5,6-dimethyl-1H-benzimidazol-2-yl)methyl]pyrazolo[1,5-a][1,3,5]triazin-4-amine] | 1.81 nM | 1.41 nM | 2.39 nM
12 | CN1C2CCC1CN(c1nc(NCc3nc4c(F)cccc4[nH]3)n3ncc(C(F)(F)F)c3n1)C2 [Example 384, N-[(4-fluoro-1H-benzimidazol-2-yl)methyl]-2-(8-methyl-3,8-diazabicyclo[3.2.1]octan-3-yl)-8-(trifluoromethyl)pyrazolo[1,5-a][1,3,5]triazin-4-amine] | 8.48 nM | 3.48 nM | 13.6 nM
13 | Fc1ccc2[nH]c(CNc3nc(N4CC5CCC(C4)N5)nc4c(Cl)cnn34)nc2c1F.O=CO [Example 360, formic acid 8-chloro-2-(3,8-diazabicyclo[3.2.1]octan-3-yl)-N-[(4,5-difluoro-1H-benzimidazol-2-yl)methyl]pyrazolo[1,5-a][1,3,5]triazin-4-amine] | 5.67 nM | 2.24 nM | 1.03 nM
